Measurements from patent US4600710A, “β-Adrenergic receptor agonist alkylaminoalkyl pyridinemethanol derivatives” (G. D. Searle & Co., priority 1985, dated 1986).
Counter-ions that a name gives are not always drawn.

Assays:
[1] = tested on: spontaneously hypertensive rats; experiment: Systemic hemodynamics in pentobarbital anesthetized spontaneously hypertensive rats; type: in vivo, rat
Experimental: Five adult male spontaneously hypertensive rats were anesthetized with sodium pentobarbital and instrumented with a femoral artery catheter for measuring arterial pressure and heart rate. The jugular vein was catheterized for injections and a thermocouple was placed in the aortic arch via the carotid artery for cardiac output measurement by the thermodilution technique. The trachea was cannulated and the rats breathed 100% oxygen. Control readings were taken and the test compound was injected in doses ranging from 0.1 to 30 mg/kg iv. After the 30 mg/kg dose, propranolol was injected iv at a dose of 1 mg/kg. Changes in hemodynamic parameters from control readings were analyzed by the paired t-test.

β-adrenergic receptor = biological target: T1, β-adrenergic receptor (Rattus norvegicus, UniProt P10608); experiment: Beta-adrenergic receptor binding ([3H]DHA displacement, rat cerebellum plasma membranes); details: rat cerebellum cortex membranes, 1 nM [3H]DHA; read-out: IC50, inhibition of β-adrenergic receptor binding of tritiated dihydroalprenolol
T1 construct: Rat cerebellums were homogenized in 20 volumes of ice cold 50 mM Tris-HCl buffer; from tissue; host or cells: rat cerebellum (crude plasma membranes)
T1 sequence (P10608 whole entry): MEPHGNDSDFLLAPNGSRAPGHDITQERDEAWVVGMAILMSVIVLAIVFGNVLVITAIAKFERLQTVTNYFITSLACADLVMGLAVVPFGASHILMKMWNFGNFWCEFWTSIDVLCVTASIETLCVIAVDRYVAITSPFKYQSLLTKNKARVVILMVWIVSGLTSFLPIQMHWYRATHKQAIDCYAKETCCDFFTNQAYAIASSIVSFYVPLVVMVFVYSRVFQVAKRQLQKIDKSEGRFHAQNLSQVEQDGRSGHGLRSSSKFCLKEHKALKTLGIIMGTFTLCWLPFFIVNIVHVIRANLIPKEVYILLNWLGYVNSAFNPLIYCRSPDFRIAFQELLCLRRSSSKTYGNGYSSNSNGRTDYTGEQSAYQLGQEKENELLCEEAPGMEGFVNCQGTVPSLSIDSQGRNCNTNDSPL
Experimental: Tissue preparation: Rat cerebellum plasma membranes were prepared by the method of U'Prichard et al, (J. Biol. Chem., 253, No. 14, pp. 5090-5102, 1978). Rat cerebellums were homogenized in 20 volumes of ice cold 50 mM Tris-HCl buffer (pH 7.4) with a Tekmar homogenizer. Crude plasma membranes were obtained by centrifugation at 45,000× g for 15 min with an intermediate rehomogenization in fresh buffer. The final pellets were resuspended in ten volumes of 50 mM buffer with 0.25M sucrose.
Binding Assay: Rat cerebellum plasma membrane preparations (10 mg wet weight per ml in a volume of one ml) were incubated with 1 nM [^3 H] DHA in buffer, 1 mM catechol and 0.01% ascorbic acid, either in the presence or absence of various amounts of test substance at room temperature for 20 minutes. Bound and free radioligand were separated by addition of 3.5 ml buffer (0° C.) followed by rapid filtration through Whatman GF/B glass fiber filter. The filter was then washed rapidly with three 3.5 ml buffer (3X). Specific binding was defined as the amount of the [^3 H]DHA bound in the absence of competing ligand minus the amount bound in the presence of 10 uM (±) propranolol (nonspecific binding). […] IC50 (inhibitory concentration -50%) values were calculated from the displacement data after logit-log transformation with least squares linear regression.

[2] = tested on: spontaneously hypertensive rats; experiment: Intravenous dose-response studies in conscious spontaneously hypertensive rats; type: in vivo, rat; details: conscious SHR
Experimental: Six adult male spontaneously hypertensive rats were anesthetized with ether and instrumented with carotid artery and jugular vein catheters. The rats were allowed to recover from surgery and ether anesthesia for three to five hours. The test compound was administered intravenously in saline at doses of 0.1, 0.2, 0.7, 2, 7, and 20 mg/kg to give cumulative doses of 0.1, 0.3, 1, 3, 10, and 30 mg/kg. At the completion of these injections propranolol, a beta-adrenergic antagonist, was administered intravenously at a dose of 1 mg/kg and the injections of the test compound were repeated. The volume of each injection was 0.1 ml/100 grams of body weight. Mean arterial pressure and heart rate were measured via the carotid artery with a Statham pressure transducer and Gould physiological recorder. Results were analyzed using a paired t-test.

[3] = tested on: spontaneously hypertensive rats; experiment: Oral dosing studies in conscious spontaneously hypertensive rats; type: in vivo, rat; details: conscious SHR, daily oral dosing 100 mg/kg for 3 days
Experimental: Ten adult male spontaneously hypertensive rats were anesthetized with sodium pentobarbital and instrumented with a carotid arterial catheter. On the following day each rat was tethered in a plastic cage and arterial blood pressure and heart rate were monitored via the arterial catheter continuously for 72 hours. Each rat was dosed intragastrically with 100 mg/kg of the test compound each day for three days. A vehicle treated group (saline) of 10 rats was tested simultaneously. Differences in blood pressure between the treated and vehicle group were analyzed by the Kraskal-Wallis and Wilcoxon rank sum tests.

SMILES | total peripheral resistance after compound ([1]; pentobarbital anesthetized SHR, iv 0.1 to 30 mg/kg, decreased from control 3 units) [units] | cardiac output after compound ([1]; pentobarbital anesthetized SHR, iv 0.1 to 30 mg/kg, increased from control 72 ml/min) [mL/min] | IC50 (β-adrenergic receptor) [µM] | ED25 ([2]; Rattus norvegicus, iv, cumulative doses 0.1-30 mg/kg, read-out: calculated intravenous dose reducing mean arterial pressure by 25%) [mg/kg] | elevation of heart rate [3] [beats/min] | time pressure remained reduced [3] [h] | lowering of mean arterial pressure ([3]; at 3-4 hours after dosing) [mmHg] | effect of propranolol on hemodynamic effects (cardiac output, total peripheral resistance) of the compound of the invention ([1]; propranolol 1 mg/kg iv after the 30 mg/kg dose, anesthetized SHR) | effect of propranolol on blood pressure and heart rate changes produced by the compound of the invention ([2]; propranolol 1 mg/kg iv)
CC(C)NCC(O)c1cccnc1 (stereo not drawn) [Example 1B, oxalate salt] | 1.1 | 92 | 39 | 37 | 114 | 6 to 10 | 39 | – | –
CC(C)NCC(O)COc1cccc2ccccc12 (stereo not drawn) [Propranolol, propranolol, reference compound] | – | – | – | – | – | – | – | reversed these hemodynamic effects | attenuated the hypertension and tachycardia
